This is an account of results in patent publication US8492391B2, “Substituted 6-(2-hydroxybenzylamino)purine derivatives, their use as medicaments and compositions containing these derivatives” (Univerzita Palackeho V Olomouci, priority 2009, dated 2013).

Data set [1] relates to β-adrenergic receptors. Nature of the data set: Modulation of the activity of β-adrenergic receptors (isoproterenol-induced cAMP synthesis in C6 glioma). It counts as cell-based. The following applies: rat C6 glioma, cAMP synthesis induced by 5 μM (−) isoproterenol, 30 min; for EFFECT (modulation of the activity of β-adrenergic receptors) / EFFECT: fold activation (modulation of the activity of β-adrenergic receptors): simultaneous addition. The method, then: Mechanism of action of novel compounds is presented on FIG. 2. […] Incubation was at 37° C. in a humidified atmosphere. Assays were performed in the logaritmic growth phase at a density of 2.5×10^5 cells/cm^2. Intracellular cAMP synthesis was induced by addition of 5 μM (−) isoproterenol. After 30 min incubation at 37° C. the medium was removed and the cellular amount of cAMP determined using the cAMP-enzyme immunoassay kit of Amersham. The I50 is determined from a dose-response curve in duplicate. The effect of several novel substituted 6-(2-hydroxybenzylamino)purine derivatives was measured after simultaneous addition with isoproterenol.
As P2Y1-like and A2 purinergic receptors, negatively and positively coupled to adenylate cyclase respectively, are present on rat C6 glioma. It has to be determined if the modulation of the synthesis of cAMP is due to inhibition of the activation of β-adrenergic receptors by isoproterenol are due to activation of purinergic receptors.

Data set [2] deals with p53. In words: p53-dependent transcription, β-galactosidase reporter in Arn8 cells. It counts as cell-based, human. Set-up: key to p53 (effect): induction of p53 protein: ++: very strong; +: weak; −: no effect. To be noted: for p53 (effect): induction of p53 protein: Arn8 cells stable transfected with a β-galactosidase reporter gene; for p53 (peak concentration in μM): Arn8 cells, concentration inducing maximum of β-galactosidase activity. The text has this:
Protein p53, accumulated in nuclei upon treatment by the compounds, then leads to trans-activation of natural cell cycle inhibitor p21^WAF1, further blocking the cell cycle. […] This allows qualitative as well as quantitative measurement of CDK inhibitors-induced p53 transcriptional activity via β-galactosidase assay. Then, the effect will be verified in treated cells by immunoblotting of proteins expressed under the control of p53. β-galactosidase activity of human melanoma cell line Arn8 was determined as described. […] Alternatively, β-galactosidase activity was quantified by measuring fluorescence of methylumbelliferyl-β-D-galactopyranoside cleavage product. Cell lines established from the human breast carcinoma (MCF-7) and the human melanoma (Arn8) cell lines were cultured in Dubecco's Modified Eagle Medium (DMEM) supplemented with 10% foetal bovine serum.
Effects of prepared compounds on activation of p53 protein were analysed in human melanoma cell line Arn8. […] The total β-galactosidase activity in Arn8 cells was quantified using a fluorimetric assay.

In data set [3] the target is T1, CDK2/cyclin E (Homo sapiens, UniProt P24941).
T1 construct: made in house; host or cells: Sf9 insect cells, baculovirus co-infection
Nature of the data set: CDK2/cyclin E kinase inhibition assay. Type of data set: biochemical. To be noted: kinase inhibitory activity, 15 μM ATP, histone substrate. The method, then:
(§1) Selected compounds were tested for CDK1/cyclin B, CDK2/cyclin E, CDK5/p25, CDK7/cyclin H and CDK9/cyclin T inhibitory activity to determine the basic relationships between their structure and the inhibitory activity. Cdk/cyclin complexes were expressed in Sf9 cells co-infected with appropriate baculoviral construct. The cells were harvested 70 hours post infection in lysis buffer (50 mM Tris pH 7.4, 150 mM NaCl, 5 mM EDTA, 20 mM NaF, 1% Tween 20, protease inhibitors) for 30 min on ice and the soluble fraction was recovered by centrifugation at 14.000 g for […]. The protein extract was stored at −80° C. until use. The final point test system for kinase activity measurement was used to carry out experiments on the kinetics under linear conditions. […] ATP and tested compound in a final volume of 20 μl, all in reaction buffer: 50 mM Hepes pH 7.4, 10 mM MgCl2, 5 mM EGTA, 10 mM 2-glycerolphosphate, 1 mM NaF, 1 mM DTT and protease inhibitors. After 30 min, the incubations were stopped by adding 5% H3PO4 and then the proteins were separated by phosphocellulose binding. The measurement of kinase inhibition employed the digital imaging analyzer BAS 1800. The kinase activity was expressed as a percentage of maximum activity and the IC50 value was determined by graphic analysis. The kinase activity is expressed as a percentage of maximum activity (FIG. 1).

The target of data set [4] is T2, CDK9/cyclin T (Homo sapiens, UniProt P50750).
T2 construct: made in house; host or cells: Sf9 insect cells, baculovirus co-infection
In words: CDK9/cyclin T kinase inhibition assay. Type of data set: biochemical. The following applies: kinase inhibitory activity, 15 μM ATP, (YSPTSPS)3 peptide substrate. How it is done: as §1

In data set [5] the test system is MCF7 (human breast adenocarcinoma). Nature of the data set: Calcein AM cytotoxicity assay, MCF7. Type of data set: cell-based. To be noted: MCF7, read-out: Cytotoxic activity IC50 (μM) MCF7. An excerpt: (§2) Cytotoxicity of the compounds is the major property determining their anticancer effect in vivo. One of the parameters used, as the basis for cytotoxicity assays, is the metabolic activity of viable cells. For example, a microtiter assay, which uses the Calcein AM, is now widely used to quantitate cell proliferation and cytotoxicity. For instance, this assay is used in drug screening programs and in chemosensitivity testing. Because only metabolically active cells cleave Calcein AM, these assays detect viable cells exclusively. The quantity of cleaved Calcein AM corresponds to the number of vital cells in the culture. We have been using the following cell lines: MCF7 (human breast adenocarcinoma), K562 (human chronic myelogenous leukaemia), HOS (human osteogenic sarcoma), HeLa (human cervical carcinoma), HL 60 (human promyelocytic leukaemia), G 361 (human malignant melanoma), CEM (human lymphoblastoid leukaemia). All cell lines were grown in DMEM medium (Gibco BRL) supplemented with 10% (v/v) fetal bovine serum and L-glutamine and maintained at 37° C. in a humidified atmosphere with 5% CO2. For cytotoxicity assays, 10^4 cells were seeded into each well of 96 well plate, allowed to stabilize for at least 2 h and then tested compounds were added at various concentrations ranging from 100 to 0.1 μM in triplicates. Three days after drug addition Calcein AM solution (Molecular Probes) was added and let to enter the cells for 1 hour. Fluorescence of viable cells was quantified using Fluoroskan Ascent (Microsystems).

The subject of data set [6] is K562 (human chronic myelogenous leukaemia). In words: Calcein AM cytotoxicity assay, K562. Type of data set: cell-based. To be noted: read-out: Cytotoxic activity IC50 (μM) K562.
Description: as §2

In data set [7] the test system is HOS (human osteogenic sarcoma). In words: Calcein AM cytotoxicity assay, HOS. It counts as cell-based. To be noted: read-out: Cytotoxic activity IC50 (μM) HOS.
Description: as §2

Read-outs that look alike come from different tables or passages of the source.

For orientation: IC50 means the midpoint of a concentration-inhibition curve.

T2 sequence (P50750 whole entry, species assumed): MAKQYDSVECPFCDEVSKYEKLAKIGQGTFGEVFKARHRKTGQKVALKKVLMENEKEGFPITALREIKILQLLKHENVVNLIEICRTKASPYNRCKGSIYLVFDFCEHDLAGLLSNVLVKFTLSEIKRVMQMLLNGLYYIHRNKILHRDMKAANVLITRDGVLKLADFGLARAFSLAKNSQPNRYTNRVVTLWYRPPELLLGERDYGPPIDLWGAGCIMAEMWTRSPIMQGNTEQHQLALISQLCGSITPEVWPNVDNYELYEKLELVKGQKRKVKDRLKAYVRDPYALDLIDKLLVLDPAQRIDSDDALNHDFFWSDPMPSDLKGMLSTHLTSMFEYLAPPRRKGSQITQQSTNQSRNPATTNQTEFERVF
T2 sequence (O60563 whole entry partner, species assumed): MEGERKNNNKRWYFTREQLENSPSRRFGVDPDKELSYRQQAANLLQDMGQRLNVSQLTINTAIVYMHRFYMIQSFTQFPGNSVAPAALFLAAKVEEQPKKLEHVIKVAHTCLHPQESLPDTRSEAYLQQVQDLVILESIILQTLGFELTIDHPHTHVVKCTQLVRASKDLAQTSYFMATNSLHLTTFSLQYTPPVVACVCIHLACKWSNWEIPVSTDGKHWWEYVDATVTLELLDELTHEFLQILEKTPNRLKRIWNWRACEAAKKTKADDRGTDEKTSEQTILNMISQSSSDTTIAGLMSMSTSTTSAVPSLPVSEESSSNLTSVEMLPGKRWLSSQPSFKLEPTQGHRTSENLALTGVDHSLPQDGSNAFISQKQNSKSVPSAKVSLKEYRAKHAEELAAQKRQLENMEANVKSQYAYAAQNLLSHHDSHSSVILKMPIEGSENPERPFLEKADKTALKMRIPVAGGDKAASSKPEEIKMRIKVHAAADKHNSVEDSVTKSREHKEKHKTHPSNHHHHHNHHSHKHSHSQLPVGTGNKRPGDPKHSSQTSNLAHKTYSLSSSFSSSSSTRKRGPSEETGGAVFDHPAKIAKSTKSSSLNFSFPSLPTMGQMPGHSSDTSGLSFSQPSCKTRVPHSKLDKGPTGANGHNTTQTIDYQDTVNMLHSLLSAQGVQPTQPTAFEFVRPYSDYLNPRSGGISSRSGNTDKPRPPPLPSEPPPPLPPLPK

Consider `COc1cccc(CNc2nc(NC3CCC(N)CC3)nc3c2ncn3C(C)C)c1O` (mixture of isomers) [Compound 126, (E/Z)—N^2-(4-aminocyclohexyl)-N^6-(2-hydroxy-3-methoxybenzyl)-9-isopropyl-9H-purin-2,6-diamine], for which, in data set [1], inhibition was half-maximal at 4 ± 1 µM (IC50) and the “EFFECT (modulation of the activity of β-adrenergic receptors)” value is recorded as “inhibition”. Also, in data set [2], the “p53 (effect): induction of p53 protein” value is reported as “++” and the “p53 (peak concentration in μM)” value amounted to 11.0 µM.

With `CCC(CO)Nc1nc(NCc2cc(Cl)ccc2O)c2ncn(C(C)C)c2n1` (centres unmarked) [Compound 79], the IC50 in data set [3] was 0.07 µM; in data set [4], 0.04 µM; in data set [5] (Homo sapiens), 3.5 µM; in data set [6] (Homo sapiens) it was 11.9 µM; in data set [7] (Homo sapiens) it was 5.3 µM. The “EFFECT: fold activation (modulation of the activity of β-adrenergic receptors)” value (“EFFECT: fold activation” below) in data set [1] is on record as 1.5-fold activation. For the same molecule, the “p53 (effect): induction of p53 protein” value in data set [2] is listed as “++”. Further, the “p53 (peak concentration in μM)” value in data set [2] came out at 8.0 µM.

Take `CC(C)C(CO)Nc1nc(NCc2cc(Cl)ccc2O)c2ncn(C(C)C)c2n1` (centres unmarked) [Compound 80]: the results for the half-maximal inhibitory concentration (IC50) in data set [3] and in data set [4] were 0.06 µM and 0.05 µM, respectively. In data set [1], the “EFFECT: fold activation” value is given as 1.8-fold activation.

As for `CC(C)n1cnc2c(NCc3cc(Cl)ccc3O)nc(NCC(C)(C)O)nc21` [Compound 81], the values for the IC50 in data set [3] and in data set [4] were 0.03 µM and 0.02 µM, respectively. Moreover, the “EFFECT: fold activation” value in data set [1] was 1.7-fold activation.

With `CC(C)n1cnc2c(NCc3cc(F)ccc3O)nc(NC3CCCCC3N)nc21` (centres unmarked) [Compound 86], the IC50 in data set [3] is 0.04 µM; in data set [4] it was 0.02 µM; in data set [1] it was 8 ± 2 µM; in data set [5] (Homo sapiens), 1.8 µM; in data set [6] (Homo sapiens), 7.6 µM; in data set [7] (Homo sapiens), 3.2 µM. Further, the “EFFECT (modulation of the activity of β-adrenergic receptors)” value in data set [1] is reported as “inhibition”.

Take `CCC(CO)Nc1nc(NCc2cc(F)ccc2O)c2ncn(C(C)C)c2n1` (centres unmarked) [Compound 89]: the IC50 in data set [3] is 0.05 µM; in data set [4] it was 0.02 µM; in data set [5] (Homo sapiens), 3.2 µM; in data set [6] (Homo sapiens), 14.7 µM; in data set [7] (Homo sapiens) it was 5.3 µM. Also, the “EFFECT: fold activation” value in data set [1] is listed as 1.9-fold activation. Also, the “p53 (effect): induction of p53 protein” value in data set [2] is on record as “++”. The “p53 (peak concentration in μM)” value in data set [2] amounted to 6.0 µM.

Regarding `Cc1cccc(CNc2nc(NC3CCCCC3N)nc3c2ncn3C(C)C)c1O` (centres unmarked) [Compound 105], in data set [1], inhibition was half-maximal at 12 ± 4 µM (IC50) and the “EFFECT (modulation of the activity of β-adrenergic receptors)” value is on record as “inhibition”.

For `Cc1ccc(O)c(CNc2nc(NC3CCC(N)CC3)nc3c2ncn3C(C)C)c1` (centres unmarked) [Compound 106], in data set [1], it took 7 ± 2 µM to reach half-maximal inhibition (IC50) and the “EFFECT (modulation of the activity of β-adrenergic receptors)” value is given as “inhibition”.

For `CCC(CO)Nc1nc(NCc2cc(C)ccc2O)c2ncn(C(C)C)c2n1` (centres unmarked) [Compound 107], the IC50 in data set [3] is 0.02 µM; in data set [5] (Homo sapiens), 6.6 µM; in data set [6] (Homo sapiens) it was 24.9 µM; in data set [7] (Homo sapiens), 18 µM. Moreover, in data set [2], the “p53 (effect): induction of p53 protein” value is “++”. Besides, the “p53 (peak concentration in μM)” value in data set [2] turned out to be 6.0 µM.

In the case of `CC(C)C(CO)Nc1nc(NCc2cccc(O)c2O)c2ncn(C(C)C)c2n1` (centres unmarked) [Compound 114], in data set [2], the “p53 (effect): induction of p53 protein” value is reported as “++” and the “p53 (peak concentration in μM)” value was found to be 12.0 µM.

As to `CCC(CO)Nc1nc(NCc2ccc(O)cc2O)c2ncn(C(C)C)c2n1` (centres unmarked) [Compound 119], the half-inhibitory concentration (IC50) is 0.08 µM in data set [3]; 0.05 µM in data set [4]; 4.3 µM in data set [5] (Homo sapiens); 13 µM in data set [6] (Homo sapiens); 8.1 µM in data set [7] (Homo sapiens). Further, the “EFFECT: fold activation” value in data set [1] is given as 1.6-fold activation. In addition, in data set [2], the “p53 (effect): induction of p53 protein” value is “+”. In data set [2], the “p53 (peak concentration in μM)” value turned out to be 12.0 µM.

In the case of `CCC(CO)Nc1nc(NCc2cc(O)cc(O)c2)c2ncn(C(C)C)c2n1` (centres unmarked) [Compound 123], the “EFFECT: fold activation” value in data set [1] is 1.7-fold activation. Moreover, the IC50 was 3.2 µM in data set [5], 5.3 µM in data set [6] and 3.7 µM in data set [7]. The “p53 (effect): induction of p53 protein” value in data set [2] is “+”. Besides, in data set [2], the “p53 (peak concentration in μM)” value is 11.0 µM.

Consider `CC(C)C(CO)Nc1nc(NCc2cc(O)ccc2O)c2ncn(C(C)C)c2n1` (centres unmarked) [Compound 124], for which the “EFFECT: fold activation” value in data set [1] is 2.1-fold activation.

Take `COc1cccc(CNc2nc(NC3CCCCC3N)nc3c2ncn3C(C)C)c1O` (centres unmarked) [Compound 125]: the IC50 in data set [3] was 0.02 µM; in data set [1], 2 µM; in data set [5] (Homo sapiens), 3.2 µM; in data set [6] (Homo sapiens), 10.9 µM. Also, the “EFFECT (modulation of the activity of β-adrenergic receptors)” value in data set [1] is given as “inhibition”. The “p53 (effect): induction of p53 protein” value in data set [2] was “++”. Also, the “p53 (peak concentration in μM)” value in data set [2] amounted to 10.0 µM.

With `CC[C@H](CO)Nc1nc(NCc2ccccc2O)c2ncn(C(C)C)c2n1` [OCII, olomoucine II, reference compound], in data set [2], the “p53 (effect): induction of p53 protein” value is listed as “++” and the “p53 (peak concentration in μM)” value came to 12.0 µM.

`Cn1cnc2c(NCc3ccccc3)nc(NCCO)nc21` [OC]: the “IC50 (μM) (modulation of the activity of β-adrenergic receptors)” value in data set [1] was “inactive”. Besides, the “EFFECT (modulation of the activity of β-adrenergic receptors)” value in data set [1] is “inactive”. Further, the concentration for half-maximal inhibition (IC50) in data set [5] is 133 µM; in data set [6], 163 µM.

As to `CCC(CO)Nc1nc(NCc2cc(Cl)ccc2O)c2ncn(C(CC)CC)c2n1` (centres unmarked) [compound 224], the IC50 in data set [3] was 0.09 µM; in data set [4], 0.06 µM; in data set [5] (Homo sapiens), 5.5 µM; in data set [6] (Homo sapiens), 15.6 µM; in data set [7] (Homo sapiens), 7.2 µM.

Regarding `CCC(CO)Nc1nc(NCc2cc(F)ccc2O)c2ncn(C(CC)CC)c2n1` (centres unmarked) [compound 228], the IC50 in data set [3] was 0.07 µM; in data set [4], 0.04 µM; in data set [5] (Homo sapiens) it was 4.6 µM; in data set [6] (Homo sapiens), 13.2 µM; in data set [7] (Homo sapiens), 6.8 µM.
